Experiments:
Experiment in all cases: combination Emax (second highest fraction inhibited in the dose matrix, 72 h); higher = more inhibition; extreme values may be limits of the assay
[1] = test system: SU-DHL-8 (B-Cell Non-Hodgkin's Lymphoma)
Summary of the method: (§1)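 Cell lines in DMEM/F12 or RPMI with 10% FBS were plated in 1536-well plates, held 24 hours at 37°C, 5% CO2, then given two-drug dose matrices for 72 hours (DMSO typically 0.2%). Viability was read by CellTiter-Glo 2.0 luminescence and scaled as inhibition from 0 (vehicle wells) to 1 (blank wells). Combination Emax is the second-highest inhibition in the matrix; Bliss excess is observed combination effect minus expected EA + EB − EA·EB, EA and EB being single-agent effects.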

[2] = test system: ES1 (Ewing's Sarcoma)
Summary of the method: as §1

[3] = test system: SR (Other Blood Carcinomas)
Summary of the method: as §1

[4] = test system: KM12 (Colorectal Carcinoma)
Summary of the method: as §1

[5] = test system: WIL2-NS (Non-Cancerous)
Summary of the method: as §1

[6] = test system: NCI-H847 (Small Cell Lung Carcinoma)
Summary of the method: as §1

[7] = test system: TC-71 (Ewing's Sarcoma)
Summary of the method: as §1

[8] = test system: KYSE-180 (Esophageal Squamous Cell Carcinoma)
Summary of the method: as §1

[9] = test system: BL-41 (Burkitt's Lymphoma)
Summary of the method: as §1

[10] = test system: TE-6 (Esophageal Squamous Cell Carcinoma)
Summary of the method: as §1

[11] = test system: L-540 (Hodgkin's Lymphoma)
Summary of the method: as §1

[12] = test system: KARPAS-45 (T-Lymphoblastic Leukemia)
Summary of the method: as §1

[13] = test system: MEL-JUSO (Melanoma)
Summary of the method: as §1

[14] = test system: DiFi (Colorectal Carcinoma)
Summary of the method: as §1

[15] = test system: WM-115 (Melanoma)
Summary of the method: as §1

[16] = test system: EVSA-T (Breast Carcinoma)
Summary of the method: as §1

[17] = test system: MS751 (Cervical Carcinoma)
Summary of the method: as §1

[18] = test system: COLO-678 (Colorectal Carcinoma)
Summary of the method: as §1

[19] = test system: DND-41 (T-Lymphoblastic Leukemia)
Summary of the method: as §1

[20] = test system: LN-18 (Glioblastoma)
Summary of the method: as §1

CN(CCO)CC[C@H](CSc1ccccc1)Nc1ccc(S(=O)(=O)NC(=O)c2ccc(N3CCC([C@@H](O)c4ccccc4-c4ccc(Cl)cc4)CC3)cc2)cc1S(=O)(=O)C(F)(F)F [AZD4320] + CN(C)CCCOc1ccc(-c2ccc3ncc4c(c3c2)n(C2CCOCC2)c(=O)n4C)cn1 [AZD0156] (first compound max 1 µM, 7x7, partner max 1 µM)
combination Emax [1]: 0.957
combination Emax [2]: 0.226
combination Emax [3]: 0.252
combination Emax [4]: 0.186
combination Emax [5]: 0.22
combination Emax [6]: 1
combination Emax [7]: 0.659
combination Emax [8]: 0.112
combination Emax [9]: 0.277
combination Emax [10]: 0.391
combination Emax [11]: 0.224
combination Emax [12]: 0.988
combination Emax [13]: 0.212
combination Emax [14]: 0.608
combination Emax [15]: 0.363
combination Emax [16]: 0.163
combination Emax [17]: 0.101
combination Emax [18]: 0.0581
combination Emax [19]: 1
combination Emax [20]: 0.222

Cc1c2c(nn1C)CSCc1cc(n(C)n1)CSc1cc(c3ccccc3c1)OCCCc1c(C(=O)O)n(C)c3c-2c(Cl)ccc13 [AZD5991] + C1CN(CCC1(C(=O)N[C@@H](CCO)C2=CC=C(C=C2)Cl)N)C3=NC=NC4=C3C=CN4 [Capivasertib] (first compound max 1 µM, 7x7, partner max 3 µM)
combination Emax [1]: 0.673
combination Emax [2]: 0.955
combination Emax [3]: 0.993
combination Emax [4]: 0.553
combination Emax [5]: 0.666
combination Emax [6]: 0.78
combination Emax [7]: 0.47
combination Emax [8]: 0.922
combination Emax [9]: 1
combination Emax [10]: 0.811
combination Emax [11]: 1
combination Emax [12]: 1
combination Emax [13]: 0.346
combination Emax [14]: 0.438
combination Emax [15]: 0.584
combination Emax [16]: 1
combination Emax [17]: 0.855
combination Emax [18]: 0.194
combination Emax [19]: 0.111
combination Emax [20]: 0.409

CN(CCO)CC[C@H](CSc1ccccc1)Nc1ccc(S(=O)(=O)NC(=O)c2ccc(N3CCC([C@@H](O)c4ccccc4-c4ccc(Cl)cc4)CC3)cc2)cc1S(=O)(=O)C(F)(F)F [AZD4320] + C=CCn1c(=O)c2cnc(Nc3ccc(N4CCN(C)CC4)cc3)nc2n1-c1cccc(C(C)(C)O)n1 [AZD1775] (first compound max 1 µM, partner max 1 µM)
combination Emax [1]: 1
combination Emax [2]: 0.827
combination Emax [3]: 1
combination Emax [4]: 0.881
combination Emax [5]: 0.973
combination Emax [6]: 1
combination Emax [7]: 0.926
combination Emax [8]: 0.783
combination Emax [9]: 1
combination Emax [10]: 0.556
combination Emax [11]: 0.979
combination Emax [12]: 1
combination Emax [13]: 0.73
combination Emax [14]: 0.944
combination Emax [15]: 0.507
combination Emax [16]: 0.191
combination Emax [17]: 0.262
combination Emax [18]: 0.367
combination Emax [19]: 1
combination Emax [20]: 0.537

CC1(C)CCC(CN2CCN(c3ccc(C(=O)NS(=O)(=O)c4ccc(NCC5CCOCC5)c([N+](=O)[O-])c4)c(Oc4cnc5[nH]ccc5c4)c3)CC2)=C(c2ccc(Cl)cc2)C1 [Venetoclax] + C=CCn1c(=O)c2cnc(Nc3ccc(N4CCN(C)CC4)cc3)nc2n1-c1cccc(C(C)(C)O)n1 [AZD1775] (first compound max 1 µM, partner max 1 µM)
combination Emax [1]: 1
combination Emax [2]: 0.946
combination Emax [3]: 0.995
combination Emax [4]: 0.781
combination Emax [5]: 0.99
combination Emax [6]: 0.992
combination Emax [7]: 0.424
combination Emax [8]: 0.739
combination Emax [9]: 1
combination Emax [10]: 0.497
combination Emax [11]: 0.957
combination Emax [12]: 0.955
combination Emax [13]: 0.521
combination Emax [14]: 0.674
combination Emax [15]: 0.27
combination Emax [16]: 0.329
combination Emax [17]: 0.261
combination Emax [18]: 0.328
combination Emax [19]: 1
combination Emax [20]: 0.555

CC1(C)CCC(CN2CCN(c3ccc(C(=O)NS(=O)(=O)c4ccc(NCC5CCOCC5)c([N+](=O)[O-])c4)c(Oc4cnc5[nH]ccc5c4)c3)CC2)=C(c2ccc(Cl)cc2)C1 [Venetoclax] + C[C@@H]1COCCN1C2=NC(=NC(=C2)C3(CC3)[S@](=N)(=O)C)C4=C5C=CNC5=NC=C4 [AZD6738] (first compound max 1 µM, 7x7, partner max 10 µM)
combination Emax [1]: 0.99
combination Emax [2]: 0.942
combination Emax [3]: 0.973
combination Emax [4]: 0.641
combination Emax [5]: 0.997
combination Emax [6]: 0.999
combination Emax [7]: 0.954
combination Emax [8]: 0.638
combination Emax [9]: 0.999
combination Emax [10]: 0.67
combination Emax [11]: 0.959
combination Emax [12]: 0.941
combination Emax [13]: 0.483
combination Emax [14]: 0.81
combination Emax [15]: 0.524
combination Emax [16]: 0.378
combination Emax [17]: 0.424
combination Emax [18]: 0.164
combination Emax [19]: 0.987
combination Emax [20]: 0.745

CN(CCO)CC[C@H](CSc1ccccc1)Nc1ccc(S(=O)(=O)NC(=O)c2ccc(N3CCC([C@@H](O)c4ccccc4-c4ccc(Cl)cc4)CC3)cc2)cc1S(=O)(=O)C(F)(F)F [AZD4320] + C[C@@H]1COCCN1C2=NC(=NC(=C2)C3(CC3)[S@](=N)(=O)C)C4=C5C=CNC5=NC=C4 [AZD6738] (first compound max 1 µM, 7x7, partner max 10 µM)
combination Emax [1]: 1
combination Emax [2]: 0.942
combination Emax [3]: 0.982
combination Emax [4]: 0.764
combination Emax [5]: 0.985
combination Emax [6]: 1
combination Emax [7]: 1
combination Emax [8]: 0.747
combination Emax [9]: 1
combination Emax [10]: 0.792
combination Emax [11]: 0.969
combination Emax [12]: 1
combination Emax [13]: 0.642
combination Emax [14]: 0.954
combination Emax [15]: 0.769
combination Emax [16]: 0.213
combination Emax [17]: 0.378
combination Emax [18]: 0.11
combination Emax [19]: 1
combination Emax [20]: 0.847

Cc1cc2ncnn2cc1Nc1ncc2c(n1)n(C1CCOCC1)c(=O)n2C [AZD7648] + CN(C)CCCOc1ccc(-c2ccc3ncc4c(c3c2)n(C2CCOCC2)c(=O)n4C)cn1 [AZD0156] (first compound max 10 µM, 7x7, partner max 1 µM)
combination Emax [1]: 0.125
combination Emax [2]: 0.478
combination Emax [3]: 0.377
combination Emax [4]: 0.241
combination Emax [5]: 0.395
combination Emax [6]: 0.663
combination Emax [7]: 0.246
combination Emax [8]: 0.168
combination Emax [9]: 0.269
combination Emax [10]: 0.363
combination Emax [11]: 0.366
combination Emax [12]: 0.234
combination Emax [13]: 0.169
combination Emax [14]: 0.273
combination Emax [15]: 0.328
combination Emax [16]: 0.28
combination Emax [17]: 0.275
combination Emax [18]: 0.0911
combination Emax [19]: 0.242
combination Emax [20]: 0.17

Cc1c2c(nn1C)CSCc1cc(n(C)n1)CSc1cc(c3ccccc3c1)OCCCc1c(C(=O)O)n(C)c3c-2c(Cl)ccc13 [AZD5991] + Cc1cc2ncnn2cc1Nc1ncc2c(n1)n(C1CCOCC1)c(=O)n2C [AZD7648] (first compound max 1 µM, 7x7, partner max 10 µM)
combination Emax [1]: 0.684
combination Emax [2]: 0.798
combination Emax [3]: 0.984
combination Emax [4]: 0.208
combination Emax [5]: 0.41
combination Emax [6]: 0.877
combination Emax [7]: 0.48
combination Emax [8]: 0.9
combination Emax [9]: 1
combination Emax [10]: 0.683
combination Emax [11]: 1
combination Emax [12]: 0.936
combination Emax [13]: 0.277
combination Emax [14]: 0.319
combination Emax [15]: 0.357
combination Emax [16]: 1
combination Emax [17]: 0.829
combination Emax [18]: 0.152
combination Emax [19]: 0.164
combination Emax [20]: 0.35

Cc1cc2ncnn2cc1Nc1ncc2c(n1)n(C1CCOCC1)c(=O)n2C [AZD7648] + CCN(CCO)CCCOc1ccc2c(Nc3cc(CC(=O)Nc4cccc(F)c4)[nH]n3)ncnc2c1 [AZD2811] (first compound max 10 µM, 7x7, partner max 1 µM)
combination Emax [1]: 0.245
combination Emax [2]: 0.724
combination Emax [3]: 0.86
combination Emax [4]: 0.261
combination Emax [5]: 0.215
combination Emax [6]: 0.971
combination Emax [7]: 0.793
combination Emax [8]: 0.207
combination Emax [9]: 0.747
combination Emax [10]: 0.313
combination Emax [11]: 0.504
combination Emax [12]: 0.931
combination Emax [13]: 0.258
combination Emax [14]: 0.584
combination Emax [15]: 0.42
combination Emax [16]: 0.327
combination Emax [17]: 0.453
combination Emax [18]: 0.152
combination Emax [19]: 0.236
combination Emax [20]: 0.393

Cc1c2c(nn1C)CSCc1cc(n(C)n1)CSc1cc(c3ccccc3c1)OCCCc1c(C(=O)O)n(C)c3c-2c(Cl)ccc13 [AZD5991] + C[C@@H](Nc1cc(F)cc(F)c1)c1cc(C(=O)N(C)C)cc2c(=O)cc(N3CCOCC3)oc12 [AZD8186] (first compound max 1 µM, 7x7, partner max 3 µM)
combination Emax [1]: 0.688
combination Emax [2]: 0.904
combination Emax [3]: 0.954
combination Emax [4]: 0.205
combination Emax [5]: 0.337
combination Emax [6]: 0.792
combination Emax [7]: 0.573
combination Emax [8]: 0.877
combination Emax [9]: 1
combination Emax [10]: 0.677
combination Emax [11]: 1
combination Emax [12]: 0.99
combination Emax [13]: 0.527
combination Emax [14]: 0.35
combination Emax [15]: 0.656
combination Emax [16]: 1
combination Emax [17]: 0.851
combination Emax [18]: 0.278
combination Emax [19]: 0.0838
combination Emax [20]: 0.573

COc1cccc(OCCCN)c1-c1cc(Nc2cnc(C#N)cn2)n[nH]1 [Prexasertib] + CN(C)CCCOc1ccc(-c2ccc3ncc4c(c3c2)n(C2CCOCC2)c(=O)n4C)cn1 [AZD0156] (first compound max 1 µM, 7x7, partner max 1 µM)
combination Emax [1]: 0.964
combination Emax [2]: 1
combination Emax [3]: 1
combination Emax [4]: 0.775
combination Emax [5]: 1
combination Emax [6]: 1
combination Emax [7]: 0.977
combination Emax [8]: 0.983
combination Emax [9]: 1
combination Emax [10]: 0.567
combination Emax [11]: 0.968
combination Emax [12]: 0.971
combination Emax [13]: 0.751
combination Emax [14]: 0.878
combination Emax [15]: 0.566
combination Emax [16]: 0.252
combination Emax [17]: 0.378
combination Emax [18]: 0.0457
combination Emax [19]: 0.811
combination Emax [20]: 0.752

CN(CCO)CC[C@H](CSc1ccccc1)Nc1ccc(S(=O)(=O)NC(=O)c2ccc(N3CCC([C@@H](O)c4ccccc4-c4ccc(Cl)cc4)CC3)cc2)cc1S(=O)(=O)C(F)(F)F [AZD4320] + Cn1cnc2c(F)c(Nc3ccc(Br)cc3Cl)c(C(=O)NOCCO)cc21 [Selumetinib] (first compound max 1 µM, 7x7, partner max 3 µM)
combination Emax [1]: 0.988
combination Emax [2]: 0.786
combination Emax [3]: 0.731
combination Emax [4]: 0.579
combination Emax [5]: 0.633
combination Emax [6]: 1
combination Emax [7]: 0.985
combination Emax [8]: 0.19
combination Emax [9]: 0.801
combination Emax [10]: 0.593
combination Emax [11]: 0.716
combination Emax [12]: 0.996
combination Emax [13]: 0.432
combination Emax [14]: 0.951
combination Emax [15]: 0.878
combination Emax [16]: 0.506
combination Emax [17]: 0.413
combination Emax [18]: 0.604
combination Emax [19]: 1
combination Emax [20]: 0.329
